Among the data in patent US11053226B2, “KRAS G12C inhibitors and methods of using the same” (Amgen Inc., priority 2018, dated 2021) are IC50 values, retold here.

Where two headings read alike, the source gives them in different places.

In this assay the target is GDP-bound KRAS protein (aa 1-169), containing both G12C and C118A amino acid substitutions (Homo sapiens (Human), UniProt P01116, C118A/G12C). Briefly: Coupled Nucleotide Exchange Assay. The class given is biochemical. On the procedure:
For compounds in Table 9, the following assay conditions were employed:
Coupled Nucleotide Exchange Assay:
The assay plates were then read on a PerkinElmer EnVision Multilabel Reader, using AlphaScreen® technology, and data were analyzed using a 4-parameter logistic model to calculate IC50 values.

Where [1] appears, read: read-out: Coupled Exchange IC50 (2 h), 2 h compound pre-incubation.
Setting [2] is: read-out: Coupled Exchange IC50 (20 h), 20 h compound pre-incubation.
[3] abbreviates: read-out: Coupled Exchange IC50 (5 min), 5 min compound pre-incubation.
The mark [4] stands for this setting: second Coupled Exchange column, read-out: Coupled Exchange IC50.
[5] abbreviates: third Coupled Exchange column, compound pre-incubation probably 20 hours (rest of head not shown; b435 lists 5 min, 2 hours or 20 hours), read-out: Coupled Exchange IC50.

Chain of GDP-bound KRAS protein (aa 1-169), containing both G12C and C118A amino acid substitutions (P01116 other isoform, or with tags, fused parts or gaps G12C/C118A): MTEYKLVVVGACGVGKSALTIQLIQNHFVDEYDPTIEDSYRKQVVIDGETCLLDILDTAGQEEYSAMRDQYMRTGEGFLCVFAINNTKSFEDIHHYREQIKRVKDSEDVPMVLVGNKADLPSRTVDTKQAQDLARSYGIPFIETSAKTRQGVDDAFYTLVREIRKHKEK

Turning to `C=CC(=O)N1CC(NC(=O)Cn2cc(-c3c(C)ccc4cn[nH]c34)c3cc(-c4c(C)ccc5cn[nH]c45)ccc32)C1` [Example 205], the IC50 by setting is: under setting [1], 80.5 µM; under setting [2], 11.4 µM.

Regarding `C=CC(=O)N1CC(NC(=O)Cn2cc(-c3cccnc3)c3cc(Br)ccc32)C1` [Example 206], the IC50 reads like this: under setting [1], 14.1 µM; under setting [2], 2.84 µM.

On to `C=CC(=O)N1CC(NC(=O)Cn2cc(-c3cccnc3)c3cc(-c4cccnc4)ccc32)C1` [Example 207], for which the IC50 turned out to be 164 µM under setting [1] and 18.2 µM under setting [2].

As for `C=CC(=O)N1CC(NC(=O)Cn2cc(-c3c(F)ccc4cn[nH]c34)c3cc(-c4c(F)ccc5cn[nH]c45)ccc32)C1` [Example 208], the IC50 reads like this: under setting [1], 20.5 µM; under setting [2], 13 µM.

`C=CC(=O)N1CC(NC(=O)Cn2cc(-c3ccccc3OC)c3cc(-c4ccccc4OC)ccc32)C1` [Example 209]: the IC50 is 14.1 µM under setting [1] and 3.01 µM under setting [2].

On to `C=CC(=O)N1CC(NC(=O)Cn2cc(-c3ccc(F)cc3F)c3cc(-c4ccc(F)cc4F)ccc32)C1` [Example 210], for which the half-maximal inhibitory concentration (IC50) was more than 250 µM under setting [1] and 10.9 µM under setting [2].

On to `C=CC(=O)N1CC(NC(=O)Cn2cc(C#N)c3cc(Br)ccc32)C1` [Example 211], for which the IC50 under setting [1] was found to be 22.9 µM and the half-maximal inhibitory concentration (IC50) under setting [2] worked out at 5.2 µM.

In the case of `C=CC(=O)N1CC(NC(=O)Cn2cc(I)c3ccccc32)C1` [Example 212], the IC50 by setting is: under setting [3], more than 250 µM; under setting [1], 27.4 µM; under setting [2], 6.8 µM.

On to `C=CC(=O)N1CC(NC(=O)Cn2cc(Cc3ccccc3)c3ccccc32)C1` [Example 213], for which the 50% inhibitory concentration (IC50) runs as follows: under setting [1], 31.1 µM; under setting [2], 5.09 µM.

For the molecule `C=CC(=O)N1CC(NC(=O)Cn2cc(CC#N)c3cc(Br)ccc32)C1` [Example 214], the IC50 under setting [1] worked out at 33.8 µM and the IC50 under setting [2] turned out to be 4.48 µM.

Consider `C=CC(=O)N1CC(NC(=O)Cn2c(-c3ccncc3)cc3ccccc32)C1` [Example 215], for which the IC50 under setting [1] is more than 250 µM and the IC50 under setting [2] was more than 250 µM.

Regarding `C=CC(=O)N1CC(NC(=O)Cn2cc(-c3cccc(C#N)c3)c3cc(Br)ccc32)C1` [Example 216], the IC50 amounted to 12.9 µM under setting [1] and 3 µM under setting [2].

Regarding `C=CC(=O)N1CC(NC(=O)Cn2ccc3cc(C4CC4)ccc32)C1` [Example 217], the IC50 by setting is: under setting [1], more than 250 µM; under setting [2], more than 125 µM.

With `C=CC(=O)N1CC(NC(=O)Cn2c3ccc(Br)cc3c3ccc(Cl)nc32)C1` [Example 218], the IC50 is, setting by setting: under setting [1], more than 250 µM; under setting [2], more than 250 µM.

With `C=CC(=O)N1CC(NC(=O)Cn2cc(-c3cocn3)c3ccc(-c4ccccc4Cl)cc32)C1` [Example 219], the IC50 was more than 250 µM under setting [1] and 2.87 µM under setting [2].

Take `C=CC(=O)N1CC(NC(=O)Cn2c(C(=O)OC)cc3c(Cl)c(Cl)ccc32)C1` [Example 220]: the IC50 runs as follows: under setting [1], 12.2 µM; under setting [2], 1.89 µM.

In the case of `C=CC(=O)N1CC(NC(=O)Cn2c(C(=O)NCc3ccc(C(=O)O)s3)cc3cc(Br)ccc32)C1` [Example 225], the concentration for half-maximal inhibition (IC50) was more than 250 µM under setting [1] and 19.8 µM under setting [2].

Take `C=CC(=O)N1CC(NC(=O)Cn2cc(CC(=O)NCc3ccccc3)c3cc(Br)ccc32)C1` [Example 226]: the concentration for half-maximal inhibition (IC50) was 8.23 µM under setting [1] and 1.66 µM under setting [2].

`C=CC(=O)N1CC(NC(=O)Cn2c3c(c4cc(Br)ccc42)CCN(C(=O)OCc2ccccc2)C3)C1` [Example 227]: the half-maximal inhibitory concentration (IC50) came to 12.3 µM under setting [1] and 2.61 µM under setting [2].

With `C=CC(=O)N1CC(NC(=O)Cn2cc(-c3cc[nH]n3)c3ccc(-c4ccccc4Cl)cc32)C1` [Example 229], the half-inhibitory concentration (IC50) is, setting by setting: under setting [1], 18.9 µM; under setting [2], 5.4 µM.

For `C=CC(=O)N1CC(NC(=O)Cn2cc(Cc3ccccc3)c3cc(Br)ccc32)C1` [Example 231], the IC50 by setting is: under setting [1], 10.3 µM; under setting [2], 2.05 µM.

Regarding `C=CC(=O)N1CC(NC(=O)Cn2ccc3cc([N+](=O)[O-])ccc32)C1` [Example 232], the concentration for half-maximal inhibition (IC50) under setting [1] was more than 250 µM and the 50% inhibitory concentration (IC50) under setting [2] was 94.1 µM.

Take `C=CC(=O)N1CC(NC(=O)Cn2cc(Br)c3cc([N+](=O)[O-])ccc32)C1` [Example 233]: the IC50 under setting [3] is more than 250 µM, the IC50 under setting [1] worked out at 11.4 µM and the half-maximal inhibitory concentration (IC50) under setting [2] stood at 1.58 µM.

On to `C=CC(=O)N1CC(NC(=O)Cn2c3ccc(Br)cc3c3ccc(Oc4ccc(F)cc4)nc32)C1` [Example 234], for which the half-inhibitory concentration (IC50) reads like this: under setting [1], more than 250 µM; under setting [2], 0.32 µM.

Consider `C=CC(=O)N1CC(NC(=O)Cn2ccc3cc(C(F)(F)F)ccc32)C1` [Example 235], for which the IC50 by setting is: under setting [1], more than 250 µM; under setting [2], 5.45 µM.

`C=CC(=O)N1CC(NC(=O)Cn2ccc3cc(OC)ccc32)C1` [Example 236]: the IC50 is, setting by setting: under setting [1], more than 250 µM; under setting [2], more than 250 µM.

With `C=CC(=O)N1CC(NC(=O)Cn2ccc3cc(-c4ccccc4)ccc32)C1` [Example 237], the half-inhibitory concentration (IC50) under setting [1] is more than 250 µM and the IC50 under setting [2] is more than 250 µM.

As to `C=CC(=O)N1CC(NC(=O)Cn2c3c(c4cc(Br)ccc42)C=NCC3)C1` [Example 238], the IC50 runs as follows: under setting [1], 73.1 µM; under setting [2], 9.89 µM.

As for `C=CC(=O)N1CC(NC(=O)Cn2c3c(c4cc(Br)ccc42)CCN(Cc2ccccc2)C3)C1` [Example 239], the IC50 runs as follows: under setting [1], more than 250 µM; under setting [2], 44 µM.

For `C=CC(=O)N1CC(NC(=O)Cn2cc([N+](=O)[O-])c3cc(Cl)ccc32)C1` [Example 240], the concentration for half-maximal inhibition (IC50) was 13.1 µM under setting [1] and 1.33 µM under setting [2].

As for `C=CC(=O)N1CC(NC(=O)CN2Cc3c(n(C(C)=O)c4ccc(Br)cc34)C2)C1` [Example 242], the IC50 under setting [1] is more than 250 µM and the half-maximal inhibitory concentration (IC50) under setting [2] was 7.66 µM.

On to `C=CC(=O)N1CC(NC(=O)Cn2c(-c3ccccc3)cc3cc(Br)ccc32)C1` [Example 243], for which the IC50 under setting [1] worked out at 18.2 µM and the IC50 under setting [2] is 2.82 µM.

Regarding `C=CC(=O)N1CC(NC(=O)Cn2c3c(c4cc(Br)ccc42)CNCC3)C1` [Example 249], the half-maximal inhibitory concentration (IC50) is, setting by setting: under setting [1], 54.6 µM; under setting [2], 21.7 µM.

With `C=CC(=O)N1CC(NC(=O)Cn2c3c(c4cc(Br)ccc42)CCNC3)C1` [Example 250], the IC50 is 89.4 µM under setting [1] and 5.69 µM under setting [2].

Turning to `C=CC(=O)N1CC(NC(=O)Cn2c3c(c4cc(Br)ccc42)CN(C(C)=O)CC3)C1` [Example 251], the IC50 under setting [1] is more than 250 µM and the IC50 under setting [2] was 7.91 µM.

With `C=CC(=O)N1CC(NC(=O)Cn2c3c(c4cc(Br)ccc42)CCN(C(C)=O)C3)C1` [Example 252], the IC50 by setting is: under setting [1], 19.4 µM; under setting [2], 2.49 µM.

On to `C=CC(=O)N1CC(NC(=O)Cn2cc(C(C)(O)C(=O)NCc3ccccc3)c3cc(Br)ccc32)C1` (stereo not drawn) [Example 253], for which the IC50 came out at 19.4 µM under setting [1] and 2.31 µM under setting [2].

As to `C=CC(=O)N1CC(NC(=O)Cn2ccc3c(F)c(Br)ccc32)C1` [Example 255], the half-maximal inhibitory concentration (IC50) runs as follows: under setting [1], more than 250 µM; under setting [2], 4.89 µM.

Regarding `C=CC(=O)N1CC(NC(=O)Cn2cc(I)c3cc(C(F)(F)F)ccc32)C1` [Example 257], the half-maximal inhibitory concentration (IC50) runs as follows: under setting [3], 64.7 µM; under setting [1], 9.12 µM; under setting [2], 0.97 µM.

For the molecule `C=CC(=O)N1CC(NC(=O)Cn2ccc3cc(Cl)c(Cl)cc32)C1` [Example 258], the 50% inhibitory concentration (IC50) under setting [1] was 104 µM and the IC50 under setting [2] amounted to 5.22 µM.

Take `C=CC(=O)N1CC(NC(=O)Cn2c3ccc(Br)cc3c3ccncc32)C1` [Example 259]: the 50% inhibitory concentration (IC50) runs as follows: under setting [1], 26.8 µM; under setting [2], 2.88 µM.

As for `C=CC(=O)N1CC(N(C)C(=O)Cn2c3ccccc3c3cc(Br)ccc32)C1` [Example 261], the IC50 reads like this: under setting [1], 15.4 µM; under setting [2], 2.17 µM.

Consider `C=CC(=O)N1CC(NC(=O)Cn2c3c(c4cc(Br)ccc42)CCCC3=O)C1` [Example 262], for which the IC50 under setting [1] was more than 250 µM and the concentration for half-maximal inhibition (IC50) under setting [2] turned out to be 3.31 µM.

Take `C=CC(=O)N1CC(NC(=O)Cn2cc(-c3ccc4ccccc4c3)c3cc(-c4ccc5ccccc5c4)cc(C)c32)C1` [Example 263]: the half-inhibitory concentration (IC50) was more than 250 µM under setting [1] and 16.3 µM under setting [2].

Consider `C=CC(=O)N1CC(NC(=O)Cn2cc(-c3ccc4ccccc4c3)c3cc(Br)cc(C)c32)C1` [Example 264], for which the IC50 is, setting by setting: under setting [1], 9.6 µM; under setting [2], 2.75 µM.

Regarding `C=CC(=O)N1CC(NC(=O)Cn2cc(-c3cccc(-c4ccccc4)c3)c3cc(Br)cc(C)c32)C1` [Example 265], the concentration for half-maximal inhibition (IC50) reads like this: under setting [1], more than 250 µM; under setting [2], 3.24 µM.

Take `C=CC(=O)N1CC(NC(=O)Cn2ccc3cc(SC)ccc32)C1` [Example 266]: the IC50 is, setting by setting: under setting [1], more than 250 µM; under setting [2], more than 62.5 µM.

Turning to `C=CC(=O)N1CC(NC(=O)Cn2ccc3cc(Br)cc(F)c32)C1` [Example 267], the half-inhibitory concentration (IC50) is, setting by setting: under setting [1], 15.5 µM; under setting [2], 2.25 µM.

With `C=CC(=O)N1CC(NC(=O)Cn2cc(-c3cccc(C(C)C)c3)c3cc(Br)cc(C)c32)C1` [Example 268], the IC50 runs as follows: under setting [1], 6.81 µM; under setting [2], 1.62 µM.

On to `C=CC(=O)N1CC(NC(=O)Cn2ccc3cc(CC)ccc32)C1` [Example 277], for which the concentration for half-maximal inhibition (IC50) was more than 250 µM under setting [4] and more than 250 µM under setting [5].

For `C=CC(=O)N1CC(NC(=O)Cn2c(C)c(C(=O)OC(C)(C)C)c3cc([N+](=O)[O-])ccc32)C1` [Example 278], the IC50 is 105 µM under setting [4] and more than 250 µM under setting [5].

Regarding `C=CC(=O)N1CC(NC(=O)Cn2c3ccccc3c3ccc(Cl)nc32)C1` [Example 280], the IC50 was more than 250 µM under setting [4] and more than 62.5 µM under setting [5].

Turning to `C=CC(=O)N1CC(NC(=O)Cn2c(C)c(-c3nccnc3Cl)c3cc(Cl)ccc32)C1` [Example 281], the IC50 was found to be 13.6 µM under setting [4] and 2.32 µM under setting [5].

Consider `C=CC(=O)N1CC(NC(=O)Cn2c(C#N)c(I)c3cc(Br)ccc32)C1` [Example 304], for which the 50% inhibitory concentration (IC50) is 7.24 µM under setting [4] and 1.24 µM under setting [5].
